Reference: publication PMC10804667, “Molecular mechanism of Fe^3+ binding inhibition to Vibrio metschnikovii ferric ion‐binding protein, FbpA, by rosmarinic acid and its hydrolysate, danshensu” (Protein Science : A Publication of the Protein Society, 2024)
Values after ≈ are worked out from the molar mass of the structure shown. Values joined by “and” are separate entries in the source; they are usually repeats but may differ in a detail not shown here. Equal values may be shown once.

Experiments:
V. metschnikovii = test: Bacteriostatic assay; type: cell-based; conditions: Vibrio metschnikovii, 20 h, NB medium, 37°C, 20 h culture; concentration at inhibitory rate of 95%
Method: A pre‐culture of V. metschnikovii was prepared in 5 mL of NB medium (3.0 g/L meat extract, 5.0 g/L meat peptone, 10.0 g/L NaCl, pH 7.0) at 37°C. When the OD600 reached ~0.6, 2 μL of the pre‐culture was inoculated into 200 μL of NB medium for the bacteriostatic assay. The culture was performed at 37°C in a 96‐well plate. Bacteriostatic agents (RA, DSS, and CA) were tested at a range of concentrations (5000 μM to 39 μM). The cultures without bacteriostatic agents were used as a natural growth control and the cultures without bacteria were used as the respective sterile controls (Blanks). The OD600 was measured using a microplate spectrophotometer (Benchmark Plus, Bio‐Rad).
The antibacterial inhibitory rates were calculated based on the following formula after culture for 20 h: Inhibitory rates%=1−OD600,NG−OD600,BKs−OD600,Is−OD600,BKs/OD600,NG−OD600,BKs×100%,
where NG, Is, and BKs refer to the natural growth control group, experimental groups with inhibitors, and their respective sterile control groups, respectively.
The inhibitory rate was plotted and fitted as a function of Log2(inhibitor concentration) using GraphPad Prism (version: 9.5.0) software with a nonlinear regression model. The MIC was calculated by reading the concentrations at the inhibitory rate of 95%.

[1] = Fe3+ reduction capacity (o-phenanthroline assay); conditions: 40 μM Fe^3+; concentration giving 20 μM Fe^2+; read-out: EC50 for reduction from Fe^3+ to Fe^2+
Method: Solutions containing 40 μM FeCl3 and varying concentrations of RA, DSS, and CA (0, 0.625, 1.25, 5, 10, 20, and 40 μM) were prepared and analyzed. Each sample was combined with 0.25% o‐phenanthroline (2 mL) followed by a pH adjustment to 3.5 with HCl, and Milli‐Q water was added to reach a final volume of 25 mL. After incubation at room temperature for 1 h, the absorbance at 510 nm was measured using a microplate spectrophotometer (Benchmark Plus, Bio‐Rad), and the concentration of Fe^2+ was determined using FeSO4·7H2O as a standard. The Fe^2+ concentrations were plotted and fitted as a function of Log2(inhibitor concentration) using GraphPad Prism (version: 9.5.0) software with a nonlinear regression model. The half maximal effective concentration (EC50) was calculated by reading the inhibitor concentrations at an Fe^2+ concentration of 20 μM.

VmFbpA [2] = test: 6×His-based VmFbpA inhibition assay (pull-down assay) of Fe3+ binding; type: biochemical, Vibrio metschnikovii; conditions: 60 min at 4°C, 20 mM Tris–HCl pH 8.0, 50 mM NaHCO3, 100 mM NaCl, read-out: IC50 to VmFbpA (inhibition of Fe^3+ binding)
Method: (§1) Fe^3+‐bound His6‐VmFbpA (30 μM, 200 μL) was loaded onto a 40 μL Ni‐NTA slurry resin (bed volume: 20 μL) in a Micro Bio‐Spin column (Bio‐Rad) and incubated at 4°C for 30 min. The column was extensively washed with wash buffer (20 mM Tris–HCl, pH 8.0, 50 mM NaHCO3, 100 mM NaCl). Various concentrations of RA, DSS, or CA (200 μL) were added to the column and incubated for 60 min at 4°C in a solvent consisting of 20 mM Tris–HCl, pH 8.0, 50 mM NaHCO3, and 100 mM NaCl. The column was washed extensively with wash buffer and eluted with 100 μL of elution buffer (wash buffer containing 250 mM imidazole). The Fe concentration of the eluent was determined using ICP‐MS as reported previously (Lu et al. [2019]) and adjusted to the protein concentration, which was measured using a Pierce 660 nm Protein Assay. Samples without FeCl3 were used as a negative control group and samples lacking inhibitors were used as a positive control group. All buffers contained 0.3% DMSO to solubilize the inhibitors, unless otherwise indicated.
(§2) The protein inhibitory rates were calculated using the following formula: Inhibitory rates%=1−Conc.Fesample−Conc.Feapo/Conc.Feholo−Conc.Feapo×100%
(§3) The inhibitory rate was plotted and fitted as a function of inhibitor concentration by a logarithmic function model using GraphPad Prism (version: 9.5.0) software. The 50% inhibitory concentration (IC50) was calculated by reading the concentration at the inhibitory rate of 50%.

VmFbpA [3] = test: Isothermal titration calorimetry (ITC) of ligand binding to VmFbpA; parameters: species or system Vibrio metschnikovii; conditions: 298 K, 20 mM HEPES pH 8.0, 50 mM NaCl, apo VmFbpA, read-out: K D for VmFbpA
Method: The 6× His‐free apo VmFbpA samples were dialyzed overnight at 4°C against dialysis buffer (20 mM pH 8.0 HEPES, 50 mM NaCl). ITC was performed using MicroCal iTC200 (Malvern). RA, DSS, or CA was dissolved in dialysis buffer at a final concentration of 400 μM and injected 20 times by a motor‐driven syringe into 200 μL of 20 μM Apo VmFbpA. The first injection volume was 0.1 μL and subsequent injection volumes were 2.0 μL. The reference cell of the microcalorimeter was filled with 200 μL of the corresponding dialysis buffer. The titrations were performed at room temperature. The data were analyzed using MicroCal LLC iTC 200 for Windows (Malvern). All experiments were repeated at least twice to ensure reproducibility.

Escherichia coli = test system: Escherichia coli; parameters: method as in Lu et al. [2021]; conditions: 1000 μM; ref Lu et al. [2021]; cited from earlier work
(UniProt Z9CIZ5JT55) = test: 6×His-based VmFbpA inhibition assay (pull-down assay) of Fe3+ binding; type: biochemical, Vibrio metschnikovii; conditions: 60 min at 4°C, 20 mM Tris–HCl pH 8.0, 50 mM NaHCO3, 100 mM NaCl, read-out: IC50 to VmFbpA (inhibition of Fe^3+ binding)
Method: as §1, §2, §3

[4] = parameters: method as in Sik et al. [2021]; conditions: after 3 months of storage; ref Sik et al. [2021]; cited from earlier work
V. metchnikovii = test system: V. metchnikovii; parameters: method as in Lu et al. [2021]; conditions: 1000 μM; ref Lu et al. [2021]; cited from earlier work
[5] = Stability of RA in gel filtration buffer by RPC; type: physicochemical
Method: The stability of RA (1 mg/mL) in gel filtration buffer (20 mM Tris–HCl, pH 8.0, and 100 mM NaCl) at 20°C was assessed in the presence and absence of VmFbpA (molar ratio: 1 to 1) by the same RPC analysis. Sampling was performed every week and diluted 100 times with buffer before injecting into a RESOURCE RPC column. The other conditions are the same as described above.

SMILES | MIC (V. metschnikovii) [µM] | EC50 [1] [µM] | IC50 (VmFbpA [2]) [mM] | Kd (VmFbpA [3]) | effect on growth of Escherichia coli (Escherichia coli) | IC50 ((UniProt Z9CIZ5JT55)) [mM] | hydrolysis rate of RA aqueous solution [4] | effect on growth of V. metchnikovii (V. metchnikovii) | degradation of RA ([5]; 20 mM Tris–HCl pH 8.0, 100 mM NaCl, stored at 20°C for 1 week) [%] | degradation rate of RA ([5]; 20 mM Tris–HCl pH 8.0, 100 mM NaCl, stored at 20°C for 2 weeks) | change of degradation rate of RA in the presence of VmFbpA ([5]; VmFbpA added at molar ratio 1:1, gel filtration buffer)
O=C(O)/C=C/c1ccc(O)c(O)c1 [CA, caffeic acid] | > 3000 | 31 ± 1 | 6 ± 2 | 18000 nM and ~18000 nM |  |  |  |  |  |  | 
O=C(O)[C@H](O)Cc1ccc(O)c(O)c1 [DSS, danshensu] |  | 23 ± 1 | 4 ± 1 | 900 nM and ~900 nM |  |  |  |  |  |  | 
O=C(/C=C/c1ccc(O)c(O)c1)O[C@H](Cc1ccc(O)c(O)c1)C(=O)O [RA, Rosmarinic acid] | 440 ± 70 (≈ 159 µg/mL) | 14.4 ± 0.1 |  | 1100 ± 500 nM | did not affect the growth | 2.2 ± 0.3 | exceeded 10% | significantly reduced the growth | 5 | ~ 30% | did not change significantly
